Data: US6884776B1, “Antimicrobial peptides derived from ubiquicidine” (priority 1997, dated 2005)
Where no end group is shown, it is not given here.

Key:
[1] = localization of 99mTc-labelled peptides with γ-camera in mice infected with Staphylococcus aureus or with sterile inflammations; type: in vivo; settings: target to non-target ratios, FIG. 13
Procedure: Mice were infected intramuscularly with about 10^6 Staphylococcus aureus bacteria (ATCC 25923) and subsequently injected intraperitoneally with 25 μg ^99mTc-peptide. Mice were also injected intramuscularly with about 1×10^8 heat-killed (1 hour, 100° C.)S. aureus, 1 μg endotoxin or 100 ng phorbol myristate acetate (PMA) in order to cause sterile inflammations. At different points in time after injection of the peptide the radioactivity was measured in the circulation (heart), determined organs (liver, kidney, bladder and spleen) and in both thigh muscles using a γ-camera.
(§1) Mice were infected in the right thigh muscle with Klebsiella pneumoniae and 25 μg ^99mTc-labelled ubiquicidine (1-18) or ubiquicidine (18-35) was subsequently injected intraperitoneally. At different points in time after injection of the peptide the amount of activity in the right (test) and left (control) thigh muscle of the mouse was measured using a γ-camera. The results are shown in FIG. 12 as a ratio of the values in the right thigh muscle and the left thigh muscle, i.e. “target to non-target ratio”. For the purpose of comparison the results for human defensin and IgG are also shown. The target to non-target ratios for infections and sterile inflammations were also compared (FIG. 13).

[2] = set-up: species or system mice; settings: mouse, in vivo
Procedure: Reference is made to FIG. 11 for a schematic view of the experimental infection and treatment of the mice. In summary, mice-were infected intramuscularly in the right thigh muscle with about 10^6 bacteria and after 5 minutes injected intraperitoneally with about 25 μg (labelled) peptide. At different points in time after injection of the peptide the animals were killed and the right thigh muscle was removed, homogenized, and finally the number of bacteria in the homogenate was determined using microbiological plate techniques, or accumulation of the labelled peptide was determined by means of a γ-camera. This test involved animals which were normal and immunocompromised (injection with cyclophosphamide, “total body” radiation).
as §1

[3] = in vivo; cited from earlier work
[4] = test system: micro-organisms; experiment: growth-killing test / in vitro antimicrobial action (IC 99%); type: cell-based
Excerpt: Peptide fragments derived from ubiquicidine comprise a preferably continuous series of at least 3, preferably at least 8 amino acids from the amino acid sequence of ubiquicidine as shown in FIG. 1. For an average skilled person it is simple to ascertain whether a peptide fragment with a series of preferably continuous amino acids chosen from the amino acid sequence of ubiquicidine does actually have antimicrobial activity and thus meets the requirements of the invention. A simple standard test for determining antimicrobial activity is for instance the universally known growth-killing test, i.e. determining of the concentration of an antimicrobial agent which kills 99% of the micro-organisms (IC 99%). Designated by “peptide (fragments)” in this application are therefore all amino acid chains which are smaller than the ubiquicidine itself, but the amino acid sequence of which is to be found, preferably continuously, in the ubiquicidine. The length of such peptide (fragments) can vary from 3 to 58 amino acids, wherein possible extra amino acids added as modification are not included.
(§2) Different techniques were used to test for the antimicrobial activity of ubiquicidine and peptides derived therefrom.

[5] = test system: Klebsiella pneumoniae; experiment: growth-killing curve determination, 60 minutes at 37° C., CFU; type: cell-based
Procedure: as §2
(§3) In the control incubations the bacteria multiplied a number of times (not shown).
(§4) Peptides were prepared using an Abimed AMS multiple peptide synthesizer and a fixed phase (tentagel AC, a polymer of polyethylene glycol spacer linked to a polystyrene matrix) (de Koster et al. (1995) J. Immunol. Methods 187:179-188). After completion of the synthesis the peptide was released from the fixed phase using a trifluoroacetic acid water(19:1) mixture and the peptides were subsequently precipitated with an ether pentane(1:1) mixture at […]. After centrifugation the obtained pep-tides were dried at 40° C. for 15 minutes. The peptides were subsequently dissolved in 10% acetic acid and concentrated by means of vacuum centrifugation. The purity of the peptides was determined using HPLC. The antimicrobial activity of these peptide fragments was determined as described in Example 1 under 2.3.

[6] = test system: Staphylococcus aureus; experiment: as above; type: cell-based
Procedure: as §2, §3, §4

99mTc-labelled ubiquicidine 18-35: MAG3-derived ubiquicidine (18-35) labelled with the emitter 99mTc (hybrid molecule) (KVAKQEKKKKKTGRAKRR; also: MAG3 chelator conjugated, site not given here, 99mTc label; UniProt P62861 92-109, looked up, fragment)
accumulation in infection versus sterile inflammations [1]: in a nidus but not in inflammations
time to maximum accumulation compared with IgG [2]: much sooner than ^99Tc-IgG

[67Ga] [gallium 67]
time needed for accumulation [3]: at least 24 hours

KVAKQEKKKKKTGRAKRR [ubiquicidine (18-35)]
accumulation in the infected thigh muscle [2]: accumulate rapidly

KVHGSLARAGKVRGQTPK [ubiquicidine (1-18)]
accumulation in the infected thigh muscle [2]: accumulate rapidly

^99Tc-ubiquicidine (1-18): ubiquicidine (1-18) labelled with technetium 99m (KVHGSLARAGKVRGQTPK; also: labelled with 99mTc, site not given here; UniProt P62861 75-92, looked up, fragment)
time to maximum accumulation compared with IgG [2]: much sooner than ^99Tc-IgG

ubiquicidine (29-41): synthetic peptide fragment of ubiquicidine, amino acids 29-41, sequence in FIG. 1 (TGRAKRRMQYNRR; Small ribosomal subunit protein eS30; UniProt P62861 103-115, looked up, fragment)
IC 99% (concentration which kills 99% of the micro-organisms) [4]: around 1 μM
antimicrobial activity of peptide fragments [5]: demonstrated antimicrobial activity
antimicrobial activity of peptide fragments [6]: demonstrated antimicrobial activity
